The results in this text go back to ChEMBL document CHEMBL1811857, “Targeting HIV entry through interaction with envelope glycoprotein 120 (gp120): synthesis and antiviral evaluation of 1,3,5-triazines with aromatic amino acids” (J Med Chem, 2011).

Data set [1] relates to PBMC. Nature of the data set: Induction of CD25 expression in human PBMC after 3 days by FACS analysis. The class given is functional, cell-based. Background: In flow cytometry, cells or beads pass a laser one at a time.
The test system of data set [2] is Human immunodeficiency virus 1. Briefly: Antiviral activity against HIV1 3a-L infected in human PBMC cells assessed as inhibition of virus-induced cytopathicity after 4 days. Conditions: Human immunodeficiency virus 1, 3a-L, 96 h. In kind it is functional, organism-based. Background: Protection from cytopathic effect is a common read-out in antiviral testing.
Data set [3] relates to PBMC. Nature of the data set: Induction of CD69 expression in human PBMC after 3 days by FACS analysis. In kind it is functional, cell-based.
Data set [4] relates to Human immunodeficiency virus 1. Nature of the data set: Binding affinity to HIV1 3B recombinant gp-120 at 12.5 uM after 5 mins by surface plasmon resonance analysis in presence of […]. A general note: SPR reads the build-up and loss of mass on a sensor chip optically.
Data set [5] deals with Human immunodeficiency virus 1. Briefly: Antiviral activity against HIV1 3B infected in human CEM cells assessed as inhibition of virus-induced cytopathicity after 4 days. The class given is functional, organism-based. Conditions: Human immunodeficiency virus 1, 3B, CCRF-CEM, 96 h.
The subject of data set [6] is PBMC. Nature of the data set: Cytotoxicity against human PBMC at 50 uM after 3 days. In kind it is cell-based. Conditions: 72 h.
Data set [7] concerns Human immunodeficiency virus 2. Briefly: Antiviral activity against HIV2 ROD infected in human CEM cells assessed as inhibition of virus-induced cytopathicity after 4 days. The class given is functional, organism-based. Conditions: Human immunodeficiency virus 2, ISOLATE ROD, CCRF-CEM, 96 h.
For data set [8], the system named is PBMC. Briefly: Induction of HLA-DR expression in human PBMC after 3 days by FACS analysis. In kind it is functional, cell-based.
In data set [9] the test system is PBMC. Briefly: Mitogenic activity in human PBMC after 3 days. In kind it is functional, cell-based.
The subject of data set [10] is Human immunodeficiency virus 1. Nature of the data set: Binding affinity to HIV1 3B recombinant gp-120 at 12.5 uM after 5 mins by surface plasmon resonance analysis.
Data set [11] can be described thus: Binding affinity to HIV1 3B recombinant gp-120 after 5 mins using high density (10400 RU) sensor chip by surface plasmon resonance analysis. Set-up: species or system Human immunodeficiency virus 1.
A short description of data set [12]: Binding affinity to HIV1 ADA recombinant gp-120 after 5 mins using low density (792 RU) sensor chip by surface plasmon resonance analysis. Set-up: species or system Human immunodeficiency virus 1.
In data set [13] the test system is Human immunodeficiency virus 1. Nature of the data set: Binding affinity to HIV1 3B recombinant gp-120 at 50 uM after 5 mins by surface plasmon resonance analysis.
A short description of data set [14]: Binding affinity to HIV1 3B recombinant gp-120 after 5 mins using low density (792 RU) sensor chip by surface plasmon resonance analysis. Set-up: species or system Human immunodeficiency virus 1.
The subject of data set [15] is CCRF-CEM. Nature of the data set: Cytotoxicity against human CEM cells after 4 days by Coulter counter analysis. The class given is cell-based. Conditions: 96 h, read-out: EC50 (the source's name).

The source made the active and inactive calls. No cut-off for these calls is given here. Bounds are passed on as bounds.

One may read the EC50 as the concentration giving half of the maximal effect. In general, Kd refers to the constant that tells how readily two partners part at equilibrium.

`CCc1c(CNc2nc(N[C@@H](Cc3c[nH]c4ccccc34)C(=O)O)nc(N[C@@H](Cc3c[nH]c4ccccc34)C(=O)O)n2)c(CC)c(CNc2nc(N[C@@H](Cc3c[nH]c4ccccc34)C(=O)O)nc(N[C@@H](Cc3c[nH]c4ccccc34)C(=O)O)n2)c(CC)c1CNc1nc(N[C@@H](Cc2c[nH]c3ccccc23)C(=O)O)nc(N[C@@H](Cc2c[nH]c3ccccc23)C(=O)O)n1`: the result in data set [1], in data set [3], in data set [8] and in data set [9] was inactive. Besides, the values for the EC50 in [2], in data set [5] and in [7] were 20 µM, 16 µM and 22 µM, respectively. Moreover, the result in data set [4], in data set [10] and in data set [13] was Active. Moreover, the Activity entry in data set [6] was “Non-toxic”. Moreover, the Kd came to 2.61 µM in data set [11], 2.51 µM in [12] and 1.61 µM in data set [14]. Also, the CC50 in [15] is greater than 250 µM.
